Laboratory results published in patent publication US12077503B2, “Substituted cyclic amides and their use as herbicides” (FMC CORPORATION, priority 2015, dated 2024).

Legend:
Assay type in all cases: in vivo
[1] = tested on: giant foxtail (Setaria faberi); assay: Test G Post-Emergence Protocol; conditions: Setaria faberi, post-emergence, 312 h; for pest or weed control at 15.625 g/ha: 15.625 g ai/ha, evaluated after 13 days (100=total damage to plant; 0=no damage to plant), read-out: Foxtail, Giant damage rating; for pest or weed control at 62.5 g/ha: 62.5 g ai/ha, read-out: Foxtail, Giant damage rating (100=total damage to plant; 0=no damage to plant); for pest or weed control at 62.5 g/ha / pest or weed control at 250 g/ha: evaluated after 13 days; for pest or weed control at 250 g/ha: 250 g ai/ha, read-out: damage to plant, Foxtail, Giant (100=total damage to plant; 0=no damage to plant)
In short: (§1)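 A glasshouse post-emergence test: 8-day-old plants sprayed at 15.625, 62.5 or 250 g/ha, then grown at 24/16 °C day/night with 14 h light and 65% humidity. Damage rated 13 days later, 0–100.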

[2] = tested on: ivy-leaved morning glory (Ipomoea hederacea); assay: Test G Post-Emergence Protocol; conditions: Ipomoea, post-emergence, 312 h; for pest or weed control at 15.625 g/ha: 15.625 g ai/ha, evaluated after 13 days (100=total damage to plant; 0=no damage to plant), read-out: Morningglory, Ivy-leaved damage rating; for pest or weed control at 62.5 g/ha: 62.5 g ai/ha, read-out: Morningglory, Ivy-leaved damage rating (100=total damage to plant; 0=no damage to plant); for pest or weed control at 62.5 g/ha / pest or weed control at 250 g/ha: evaluated after 13 days; for pest or weed control at 250 g/ha: 250 g ai/ha, read-out: damage to plant, Morningglory, Ivy-leaved (100=total damage to plant; 0=no damage to plant)
In short: as §1

[3] = tested on: barnyardgrass (Echinochloa crus-galli); assay: Test G Post-Emergence Protocol; conditions: Echinochloa crus-galli, post-emergence, 312 h; for pest or weed control at 15.625 g/ha: 15.625 g ai/ha, evaluated after 13 days (100=total damage to plant; 0=no damage to plant), read-out: Barnyardgrass damage rating; for pest or weed control at 62.5 g/ha: 62.5 g ai/ha, read-out: Barnyardgrass damage rating (100=total damage to plant; 0=no damage to plant); for pest or weed control at 62.5 g/ha / pest or weed control at 250 g/ha: evaluated after 13 days; for pest or weed control at 250 g/ha: 250 g ai/ha, read-out: damage to plant, Barnyardgrass (100=total damage to plant; 0=no damage to plant)
In short: as §1

[4] = tested on: velvetleaf (Abutilon theophrasti); assay: Test G Post-Emergence Protocol; conditions: Abutilon theophrasti, post-emergence, 312 h; for pest or weed control at 15.625 g/ha: 15.625 g ai/ha, evaluated after 13 days (100=total damage to plant; 0=no damage to plant), read-out: Velvetleaf damage rating; for pest or weed control at 62.5 g/ha: 62.5 g ai/ha, read-out: Velvetleaf damage rating (100=total damage to plant; 0=no damage to plant); for pest or weed control at 62.5 g/ha / pest or weed control at 250 g/ha: evaluated after 13 days; for pest or weed control at 250 g/ha: 250 g ai/ha, read-out: damage to plant, Velvetleaf (100=total damage to plant; 0=no damage to plant)
In short: as §1

corn (Zea mays) [5] = assay: Test G Post-Emergence Protocol; conditions: Zea mays, post-emergence, 312 h; for plant injury at 15.625 g/ha: 15.625 g ai/ha, evaluated after 13 days (100=total damage to plant; 0=no damage to plant), read-out: Corn damage rating; for plant injury at 62.5 g/ha: 62.5 g ai/ha, read-out: Corn damage rating (100=total damage to plant; 0=no damage to plant); for plant injury at 62.5 g/ha / plant injury at 250 g/ha: evaluated after 13 days; for plant injury at 250 g/ha: 250 g ai/ha, read-out: damage to plant, Corn (100=total damage to plant; 0=no damage to plant)
In short: as §1

[6] = tested on: redroot pigweed (Amaranthus retroflexus); assay: Test G Post-Emergence Protocol; conditions: Amaranthus retroflexus, post-emergence, 312 h; for pest or weed control at 15.625 g/ha: 15.625 g ai/ha, evaluated after 13 days (100=total damage to plant; 0=no damage to plant), read-out: Pigweed, Redroot damage rating; for pest or weed control at 62.5 g/ha: 62.5 g ai/ha, read-out: Pigweed, Redroot damage rating (100=total damage to plant; 0=no damage to plant); for pest or weed control at 62.5 g/ha / pest or weed control at 250 g/ha: evaluated after 13 days; for pest or weed control at 250 g/ha: 250 g ai/ha, read-out: damage to plant, Pigweed, Redroot (100=total damage to plant; 0=no damage to plant)
In short: as §1

[7] = tested on: giant foxtail (Setaria faberi); assay: Test G Pre-Emergence Protocol; conditions: Setaria faberi, pre-emergence, 312 h, evaluated after 13 days; for pest or weed control at 15.625 g/ha: 15.625 g ai/ha; for pest or weed control at 15.625 g/ha / pest or weed control at 250 g/ha: read-out: Foxtail, Giant damage rating (100=total damage to plant; 0=no damage to plant); for pest or weed control at 62.5 g/ha: 62.5 g ai/ha, 100=total damage to plant, 0=no damage to plant, read-out: plant damage rating, Foxtail, Giant; for pest or weed control at 250 g/ha: 250 g ai/ha
In short: (§2)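 Pots of seeds in standard soil were grown for one day in a glasshouse (24/16 °C day/night, 14 h light, 65% humidity), then sprayed with compound in acetone/water 50:50 with 0.5% Tween 20 at 15.625, 62.5 or 250 g/ha. Damage was scored after 13 days on a 0 (none) to 100 (total) scale.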

[8] = tested on: ivy-leaved morning glory (Ipomoea hederacea); assay: Test G Pre-Emergence Protocol; conditions: Ipomoea, pre-emergence, 312 h, evaluated after 13 days; for pest or weed control at 15.625 g/ha: 15.625 g ai/ha, read-out: Morning-glory, Ivy-leaved damage rating (100=total damage to plant; 0=no damage to plant); for pest or weed control at 62.5 g/ha: 62.5 g ai/ha, 100=total damage to plant, 0=no damage to plant, read-out: plant damage rating, Morningglory, Ivy-leaved; for pest or weed control at 250 g/ha: 250 g ai/ha, read-out: Morningglory, Ivy-leaved damage rating (100=total damage to plant; 0=no damage to plant)
In short: as §2

[9] = tested on: barnyardgrass (Echinochloa crus-galli); assay: Test G Pre-Emergence Protocol; conditions: Echinochloa crus-galli, pre-emergence, 312 h, evaluated after 13 days; for pest or weed control at 15.625 g/ha: 15.625 g ai/ha, read-out: Barnyard grass damage rating (100=total damage to plant; 0=no damage to plant); for pest or weed control at 62.5 g/ha: 62.5 g ai/ha, 100=total damage to plant, 0=no damage to plant, read-out: plant damage rating, Barnyardgrass; for pest or weed control at 250 g/ha: 250 g ai/ha, read-out: Barnyardgrass damage rating (100=total damage to plant; 0=no damage to plant)
In short: as §2

[10] = tested on: velvetleaf (Abutilon theophrasti); assay: Test G Pre-Emergence Protocol; conditions: Abutilon theophrasti, pre-emergence, 312 h, evaluated after 13 days; for pest or weed control at 15.625 g/ha: 15.625 g ai/ha; for pest or weed control at 15.625 g/ha / pest or weed control at 250 g/ha: read-out: Velvetleaf damage rating (100=total damage to plant; 0=no damage to plant); for pest or weed control at 62.5 g/ha: 62.5 g ai/ha, 100=total damage to plant, 0=no damage to plant, read-out: plant damage rating, Velvetleaf; for pest or weed control at 250 g/ha: 250 g ai/ha
In short: as §2

corn (Zea mays) [11] = assay: Test G Pre-Emergence Protocol; conditions: Zea mays, pre-emergence, 312 h, evaluated after 13 days; for plant injury at 15.625 g/ha: 15.625 g ai/ha; for plant injury at 15.625 g/ha / plant injury at 250 g/ha: read-out: Corn damage rating (100=total damage to plant; 0=no damage to plant); for plant injury at 62.5 g/ha: 62.5 g ai/ha, 100=total damage to plant, 0=no damage to plant, read-out: plant damage rating, Corn; for plant injury at 250 g/ha: 250 g ai/ha
In short: as §2

[12] = tested on: redroot pigweed (Amaranthus retroflexus); assay: Test G Pre-Emergence Protocol; conditions: Amaranthus retroflexus, pre-emergence, 312 h, evaluated after 13 days; for pest or weed control at 62.5 g/ha: 62.5 g ai/ha, 100=total damage to plant, 0=no damage to plant, read-out: plant damage rating, Pigweed, Redroot; for pest or weed control at 250 g/ha: 250 g ai/ha; for pest or weed control at 250 g/ha / pest or weed control at 15.625 g/ha: read-out: Pigweed, Redroot damage rating (100=total damage to plant; 0=no damage to plant); for pest or weed control at 15.625 g/ha: 15.625 g ai/ha
In short: as §2

Structure (SMILES) | pest or weed control at 15.625 g/ha [1] | pest or weed control at 62.5 g/ha [1] | pest or weed control at 250 g/ha [1] | pest or weed control at 15.625 g/ha [2] | pest or weed control at 62.5 g/ha [2] | pest or weed control at 250 g/ha [2] | pest or weed control at 15.625 g/ha [3] | pest or weed control at 62.5 g/ha [3] | pest or weed control at 250 g/ha [3] | pest or weed control at 15.625 g/ha [4] | pest or weed control at 62.5 g/ha [4] | pest or weed control at 250 g/ha [4] | plant injury at 15.625 g/ha (corn (Zea mays) [5]) | plant injury at 62.5 g/ha (corn (Zea mays) [5]) | plant injury at 250 g/ha (corn (Zea mays) [5]) | pest or weed control at 15.625 g/ha [6] | pest or weed control at 62.5 g/ha [6] | pest or weed control at 250 g/ha [6] | pest or weed control at 15.625 g/ha [7] | pest or weed control at 62.5 g/ha [7] | also measured
COc1ccc([C@H]2CN(C)C(=O)[C@@H]2C(=O)Nc2ccccc2F)c(C)c1 (racemic) [Compound 1455] | 10% | 10% | 50% | 0% | 0% | 20% | 0% | 0% | 20% | 0% | 0% | 10% | 10% | 10% | 20% | 0% | 0% | 40% | 30% | 70% | pest or weed control at 250 g/ha [7]: 90%; pest or weed control at 15.625 g/ha [8]: 0%; pest or weed control at 62.5 g/ha [8]: 0%; pest or weed control at 250 g/ha [8]: 20%; pest or weed control at 15.625 g/ha [9]: 30%; pest or weed control at 62.5 g/ha [9]: 70%; pest or weed control at 250 g/ha [9]: 90%; pest or weed control at 15.625 g/ha [10]: 0%; pest or weed control at 62.5 g/ha [10]: 30%; pest or weed control at 250 g/ha [10]: 0%; plant injury at 15.625 g/ha (corn (Zea mays) [11]): 0%; plant injury at 62.5 g/ha (corn (Zea mays) [11]): 0%; plant injury at 250 g/ha (corn (Zea mays) [11]): 10%; pest or weed control at 62.5 g/ha [12]: 0%; pest or weed control at 250 g/ha [12]: 0%
CN1C[C@H](c2ccc3c(c2)CCCC3)[C@@H](C(=O)Nc2cccc(F)c2F)C1=O (racemic) [Compound 1496] | 20% | 60% | 60% | 0% | 0% | 0% | 20% | 50% | 60% | 0% | 0% | 20% | 10% | 20% | 50% | 0% | 0% | 0% | 0% | 50% | pest or weed control at 250 g/ha [7]: 80%; pest or weed control at 15.625 g/ha [8]: 0%; pest or weed control at 62.5 g/ha [8]: 0%; pest or weed control at 250 g/ha [8]: 0%; pest or weed control at 15.625 g/ha [9]: 0%; pest or weed control at 62.5 g/ha [9]: 40%; pest or weed control at 250 g/ha [9]: 80%; pest or weed control at 15.625 g/ha [10]: 0%; pest or weed control at 62.5 g/ha [10]: 0%; pest or weed control at 250 g/ha [10]: 0%; plant injury at 15.625 g/ha (corn (Zea mays) [11]): 0%; plant injury at 62.5 g/ha (corn (Zea mays) [11]): 0%; plant injury at 250 g/ha (corn (Zea mays) [11]): 20%; pest or weed control at 15.625 g/ha [12]: 0%; pest or weed control at 62.5 g/ha [12]: 0%; pest or weed control at 250 g/ha [12]: 0%
CN1C[C@@H](c2ccc(C(F)(F)F)cc2)[C@H](C(=O)Nc2cc(C(F)(F)F)[nH]n2)C1=O (racemic) [Compound 1530] | 0% | 0% | 0% | 0% | 0% | 0% | 0% | 0% | 0% | 0% | 0% | 0% | 0% | 0% | 0% | 0% | 0% | 0% | 0% | 0% | pest or weed control at 250 g/ha [7]: 0%; pest or weed control at 15.625 g/ha [8]: 0%; pest or weed control at 62.5 g/ha [8]: 0%; pest or weed control at 250 g/ha [8]: 0%; pest or weed control at 15.625 g/ha [9]: 0%; pest or weed control at 62.5 g/ha [9]: 0%; pest or weed control at 250 g/ha [9]: 0%; pest or weed control at 15.625 g/ha [10]: 0%; pest or weed control at 62.5 g/ha [10]: 0%; pest or weed control at 250 g/ha [10]: 0%; plant injury at 15.625 g/ha (corn (Zea mays) [11]): 0%; plant injury at 62.5 g/ha (corn (Zea mays) [11]): 0%; plant injury at 250 g/ha (corn (Zea mays) [11]): 0%; pest or weed control at 15.625 g/ha [12]: 0%; pest or weed control at 62.5 g/ha [12]: 0%; pest or weed control at 250 g/ha [12]: 0%
